Experimental data published in the NIST ThermoML archive (doi:10.1016/j.fluid.2018.05.023).
Numbers after ± are expanded uncertainties.

Columns and labels:
[1] = Molar enthalpy of transition or fusion; details: Crystal; DSC
[2] = Crystal; DTA

Molar enthalpy of transition or fusion [1]: 2.36 ± 0.112 kcal/mol
Normal melting temperature [2]: 92.00 ± 1.1 °C
Compound: Cn1cc([N+](=O)[O-])cn1 [1-methyl-4-nitropyrazole]
